Laboratory results: ChEMBL document CHEMBL5042541 (J Med Chem, 2022)

Key:
[1] = target: Keap1/Nrf2 (Homo sapiens, UniProt Q14145)
[2] = Lipophilicity, logD of compound at pH 7.5; format: physicochemical; conditions: buffer

Keap1/Nrf2, sequence (Q16236 whole entry): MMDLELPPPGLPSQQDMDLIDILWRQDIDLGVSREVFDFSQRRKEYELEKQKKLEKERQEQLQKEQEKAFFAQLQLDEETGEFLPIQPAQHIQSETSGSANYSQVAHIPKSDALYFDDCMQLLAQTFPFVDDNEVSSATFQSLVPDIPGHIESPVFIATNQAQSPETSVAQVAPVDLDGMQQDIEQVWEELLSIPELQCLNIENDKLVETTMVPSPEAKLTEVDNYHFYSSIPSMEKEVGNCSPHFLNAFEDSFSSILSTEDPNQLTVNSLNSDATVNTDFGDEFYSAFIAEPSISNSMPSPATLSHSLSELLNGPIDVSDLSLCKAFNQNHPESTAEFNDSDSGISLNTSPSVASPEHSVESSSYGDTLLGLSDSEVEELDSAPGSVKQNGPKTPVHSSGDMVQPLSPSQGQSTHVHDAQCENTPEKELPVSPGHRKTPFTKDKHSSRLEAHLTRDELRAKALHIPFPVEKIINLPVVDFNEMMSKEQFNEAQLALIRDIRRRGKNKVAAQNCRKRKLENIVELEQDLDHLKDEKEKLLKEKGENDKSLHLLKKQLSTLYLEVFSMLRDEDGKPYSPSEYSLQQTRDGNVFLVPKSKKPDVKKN
Keap1/Nrf2, sequence (Q14145 whole entry): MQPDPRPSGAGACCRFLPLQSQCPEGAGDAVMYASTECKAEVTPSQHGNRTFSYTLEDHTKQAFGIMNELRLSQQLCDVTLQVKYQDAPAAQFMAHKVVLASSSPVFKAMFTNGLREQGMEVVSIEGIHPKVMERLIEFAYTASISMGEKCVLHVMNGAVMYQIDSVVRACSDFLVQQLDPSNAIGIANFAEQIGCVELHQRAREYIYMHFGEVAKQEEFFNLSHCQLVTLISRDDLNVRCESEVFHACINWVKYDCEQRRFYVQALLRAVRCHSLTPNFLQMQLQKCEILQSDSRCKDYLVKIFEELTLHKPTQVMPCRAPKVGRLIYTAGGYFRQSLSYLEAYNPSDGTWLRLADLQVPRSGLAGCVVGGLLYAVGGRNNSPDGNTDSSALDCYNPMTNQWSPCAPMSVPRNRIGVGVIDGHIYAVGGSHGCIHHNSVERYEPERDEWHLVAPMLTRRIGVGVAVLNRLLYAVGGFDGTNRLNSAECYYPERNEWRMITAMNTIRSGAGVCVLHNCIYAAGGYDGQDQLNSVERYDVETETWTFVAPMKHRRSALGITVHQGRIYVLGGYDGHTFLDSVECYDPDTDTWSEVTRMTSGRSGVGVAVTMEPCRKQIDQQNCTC

Kd [1] [µM] | Structure (SMILES) | logD [2]
> 500 | CC(=O)N1CCC[C@H]1C(=O)N[C@@H]1CNC(=O)c2ccccc2COC[C@H](C(=O)N(C)C)NC1=O | –
– | CC(=O)N1CCC[C@H]1C(=O)N[C@@H]1COC(=O)c2ccccc2CSC[C@H](C(=O)N(C)C)NC1=O | 0.43
